From patent publication US8410056B2, “Pro-oxidant anti-cancer compounds” (priority 2006, dated 2013)

Tests used:
[1] = system: cancer cells; assay: IC50, killing of cancer cells in vitro; assay type: cell-based; details: approximately
Source text: FIG. 9. […] IC50: Concentration in micromolar that is needed of a particular drug to induce 50% killing of cancer cells in vitro. −log Kd: inverse log of the particular drug's binding affinity.
In FIG. 9, the inventors analysed the correlation between the binding affinities of the vitamin E analogues for the ubiquinone site and their biological activity in causing apoptosis of cancer cells. The result indicates a direct relationship between the binding affinity to the site and their ability to kill cancer cells. The differences observed between the docking and the list of results reflects the biological accessibility of the compounds reaching the complex II target site. Thus, the IC50 reflects not only the ability of the analogues to bind to the site, but also their ability to enter across the cell membrane and gain access to the mitochondrial matrix. […] The best comparison would be made by comparing the Autodock results with an enzyme assay using purified complex II kits commercially available (MS201 COMPLEX II IMMUNOCAPTURE KIT MitoScience LLC, 1850 Millrace Drive, Suite 3A, Eugene, Oreg. 97403, USA, http://www.mitosciences.com).

[2] = system: MCF-7 cells; assay: Apoptosis, annexin V-FITC method; assay type: cell-based, human
Description: Cell culture and treatment. […] Cells were cultured in DMEM with 10% FCS, 100 U/ml penicillin and 100 μg/ml streptomycin at 37° C. in a humidified atmosphere of 5% CO2. Mitochondrial complex I-deficient (Breen and Scheffler 1979; DeFrancesco et al 1976; Scheffler et al 2004) and complex II-deficient cells (Albayrak et al 2003; Oostveen et al 1995) were grown in DMEM with 10% FCS, […] glucose and non-essential amino acids.
At approximately 70% confluency, cells were treated with up to 50 μM α-TOS (Sigma), up to 100 μM 3-BP (Aldrich) or 30 ng/ml of human recombinant tumor necrosis factor-related apoptosis—inducing ligand (TRAIL) (Weber et al, 2002) under normoxic or hypoxic conditions. For hypoxia, cells overlaid with nitrogen-purged medium were placed in a hypoxic chamber pre-flushed extensively with nitrogen. The hypoxic chamber with cells was then placed in the incubator as required. α-TOS was dissolved in ethanol and used such that the final ethanol concentration in cell culture medium was <0.1% (v/v). Stock solutions of 3-BP were prepared in PBS prior to use.
Apoptosis assessment. Apoptosis was quantified using the annexin V-FITC method, which detects phosphatidyl serine externalized in the early phases of apoptosis (Boersma et al, 1996). Briefly, cells were plated at 10^5 per well in 24-well plates and, after an overnight recuperation, treated with α-TOS or 3-BP alone or in combination. Floating and attached cells were harvested, washed with PBS, resuspended in 0.2 ml binding buffer (10 mM Hepes, 140 mM NaCl, 5 mM CaCl2, pH 7.4), incubated for 30 min at 4° C. with 2 μl annexin V-FITC (PharMingen), supplemented with 200 μl of 50 μg/ml propidium iodide (PI; Sigma), and analyzed by flow cytometry (FACScalibur, Becton Dickinson) using channel 1 for annexin V-FITC binding and channel 2 for PI staining. Cell death was quantified as the percentage of cells with increased annexin V binding and PI staining. […]

[3] = molecular target: T1, SDH/Complex II, isolated rat liver mitochondria (Rattus norvegicus, UniProt P21913+Q641Z9+Q6PCT8); assay: SDH/Complex II activity, DCIP/PMS assay; assay type: biochemical; details: 100 or 300 μM α-TOS; compared to control
T1 construct: Rat liver mitochondria were prepared by differential centrifugation; from tissue; host or cells: rat liver mitochondria / sub-mitochondrial particles
Description: Preparation of sub-mitochondrial particles (SMPs) from isolated rat liver. Rat liver mitochondria were prepared by differential centrifugation according to the modified method of Rice and Lindsay, 1997. 2 ml of mitochondrial pellet were resuspended in 15 ml of 20 mM KH2 PO4 pH 7.4 and sonicated at a setting of 80 Watt for 3×15 s. The sonicated solution was then centrifuged at 6,500×g for 7 min. The supernatant fraction was kept on ice and the remaining pellet resuspended and sonicated again. The sonicated solution was centrifuged as before and the supernatant removed from the second centrifugation step combined with that from the first centrifrugation. The combined supernatant was recentrifitged at 108,000×g for 1 h. The pellet of SMPs was resuspended in 5 ml of 20 mM KH2PO4 pH 7.4 and stored frozen at −20° C. until used.
Measurement of mitochondrial complex II and complex I activity. A time course for the reduction of the complex II substrate 2,6-dichlorophenol indophenol (DCIP) by the mitochondrial preparations was followed by measuring the absorbance at 600 nm in 1 cm cuvettes containing a 1 ml reaction volume (ε600=21×10^3 M^−1cm^−1). The reaction components included NADH, 0.5 mM; succinate, 5 mM; KCN, 10 mM; DCIP, 50 μM; PMS, 50 μM. […] The change in absorbance of DCIP was measured using a spectrophotometer (UVIKON XL, Secomam) and replicate samples were assayed (n=3). […]

[4] = system: NADH dehydrogenase (complex I); assay: Complex I (NADH dehydrogenase) activity; assay type: biochemical; details: data not shown
Description: Measurement of mitochondrial complex II and complex I activity. A time course for the reduction of the complex II substrate 2,6-dichlorophenol indophenol (DCIP) by the mitochondrial preparations was followed by measuring the absorbance at 600 nm in 1 cm cuvettes containing a 1 ml reaction volume (ε600=21×10^3 M^−1cm^−1). The reaction components included NADH, 0.5 mM; succinate, 5 mM; KCN, 10 mM; DCIP, 50 μM; PMS, 50 μM. For each assay point, 0.5 mg sample protein was used and α-TOS was added at either 100 or 300 μM as indicated. The change in absorbance of DCIP was measured using a spectrophotometer (UVIKON XL, Secomam) and replicate samples were assayed (n=3). When measuring the complex I (NADH dehydrogenase activity), PMS was omitted. […]
Additional support for the role of α-TOS in inhibiting mitochondrial respiratory complex II activity was sought by isolating subcellular fractions containing mitochondrial preparations from rat liver as well as membranous fractions from P. denitrificans. For these studies, the assay method of SDH/Complex II activity was based on that of King (1967) using phenazine methosulphate (PMS) and the terminal electron acceptor, 2,6-dichloroindophenol (DCIP) as the indicator dye by following the decrease in absorbance at 600 nm as it was reduced by SDH driven under conditions of high succinate. […]

[5] = system: Jurkat, HBT11, MCF7, MCF7-C3; details: Birringer et al, cited from earlier work
[6] = system: erbB2 highly positive breast carcinomas
Description: (A) Nude mice were inoculated with MCF-7 cells and, after tumors became established, the animals were treated once every 3 d with 10 μmoles per mouse of α-TOS dissolved in DMSO or with DMSO alone, by intraperitoneal (i.p.) injection. Tumor size was measured using calipers and was correlated to the size of the carcinomas at the onset of the therapy. Four animals were used in each group. The results shown are mean values±S.E. The symbol ‘*’ denotes significant difference (p<0.05). (B) Female FVB/N erbB2 mice with palpable tumors (see General Materials and Methods) received either 10 μmoles α-TOS solubilized in corn oil/4% ethanol (n=11) or the corn oil/4% ethanol alone (control, n=9) by i.p. injection once every 3 d, or 0.2 μmoles 3-BP (n=8) in PBS at the tumor site every day. Tumor size was recorded using calipers. Two independent experiments were conducted. Results are represented as mean values±S.E. The symbol ‘*’ denotes significant difference (p<0.05) in the analysis of variance between the 3-BP and α-TOS curves.
Mouse tumor experiments. Nude mice were inoculated subcutaneously with MCF-7 cells (2×10^6 cells/mouse). After tumors developed (diameter of 3-7 mm), mice were injected intraperitoneally with 10 μmoles α-TOS in DMSO every 3 days. Control mice were injected with an equal volume (100 μl) of DMSO only. Tumor size was estimated by measuring with digital calipers. A colony of transgenic FVB/N2O2 rat c-neu mice carrying the rat HER-2/neu protooncogene driven by the MMTV promoter on the H-2^q FVB/N background (Guy et al, 1992) was established at the Griffith University Animal Facility and maintained under strict inbreeding conditions. The presence of the transgene was routinely confirmed by PCR. Approximately 70% of the female mice developed spontaneous mammary carcinomas with a mean latency time of 10 months. Female transgenic FVB/N2O2 rat c-neu mice bearing progressively growing tumors with a mean diameter of 10±5 mm were randomly assigned to control or treatment groups. Tumor size was measured using digital calipers. […]

T1 sequence (P21913 31-282): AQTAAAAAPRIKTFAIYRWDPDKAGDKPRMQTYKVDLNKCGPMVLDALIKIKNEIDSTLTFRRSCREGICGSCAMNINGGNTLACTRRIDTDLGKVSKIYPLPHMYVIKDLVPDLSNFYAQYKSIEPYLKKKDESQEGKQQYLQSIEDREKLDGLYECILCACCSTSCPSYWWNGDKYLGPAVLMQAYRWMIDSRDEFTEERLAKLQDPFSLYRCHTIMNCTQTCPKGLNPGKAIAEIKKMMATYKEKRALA
T1 sequence (Q641Z9 30-169 limits assumed): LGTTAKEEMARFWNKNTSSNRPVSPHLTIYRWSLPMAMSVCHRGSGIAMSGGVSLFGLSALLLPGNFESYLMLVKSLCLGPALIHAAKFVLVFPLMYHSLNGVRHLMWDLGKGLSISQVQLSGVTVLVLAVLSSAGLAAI
T1 sequence (Q6PCT8 57-159): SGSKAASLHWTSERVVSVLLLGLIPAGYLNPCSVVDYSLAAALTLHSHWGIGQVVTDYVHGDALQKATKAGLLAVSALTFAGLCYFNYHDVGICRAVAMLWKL
T1 sequence (Q920L2 35-656 partner): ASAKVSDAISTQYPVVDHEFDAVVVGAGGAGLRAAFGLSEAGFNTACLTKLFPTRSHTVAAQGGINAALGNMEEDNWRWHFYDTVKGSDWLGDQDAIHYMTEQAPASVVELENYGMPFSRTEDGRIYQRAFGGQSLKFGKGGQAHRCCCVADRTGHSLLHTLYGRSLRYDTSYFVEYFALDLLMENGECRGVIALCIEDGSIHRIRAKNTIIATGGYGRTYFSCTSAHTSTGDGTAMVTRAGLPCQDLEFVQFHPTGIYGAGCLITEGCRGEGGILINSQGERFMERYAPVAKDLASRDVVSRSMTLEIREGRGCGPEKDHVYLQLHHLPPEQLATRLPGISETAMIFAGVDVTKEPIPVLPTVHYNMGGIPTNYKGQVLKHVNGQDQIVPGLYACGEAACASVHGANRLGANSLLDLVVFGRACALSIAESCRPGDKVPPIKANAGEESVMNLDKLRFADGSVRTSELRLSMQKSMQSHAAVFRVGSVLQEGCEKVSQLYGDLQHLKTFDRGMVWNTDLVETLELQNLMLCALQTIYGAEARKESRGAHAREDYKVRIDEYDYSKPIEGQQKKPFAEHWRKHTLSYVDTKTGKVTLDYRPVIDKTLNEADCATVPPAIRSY

Cc1c(C)c2c(c(C)c1OC(=O)CCC(=O)O)CC[C@@](C)(CCC[C@H](C)CCC[C@H](C)CCCC(C)C)O2 [Compound 1, α-tocopheryl succinate]
IC50 [1]: 40 to 50 µM
apoptosis after CybL siRNA ([2]; MCF7 cells treated with siRNA against CybL): reduced the levels of apoptosis mediated by α-TOS
apoptosis ([2]; MCF-7 (erbB2-low), 24 h, normoxia or hypoxia): sensitive to apoptosis induced by α-TOS under both normoxia and hypoxia
rate of reduction of DCIP (SDH/Complex II activity) [3]: decreased rapidly and significantly after treatment with α-TOS
NADH dehydrogenase (complex I) activity [4]: no effect
pro-apoptotic activity ([5]; compared with α-TOS and isomers): highest apoptogenic activity
IC50 ([5]; Jurkat, HBT11, MCF7, MCF7-C3, 2003): 43 µM
reduction in the average size of tumors ([6]; about, over the 2 weeks of treatment, 10 μmoles i.p. every 3 d): 30-40%
tumor growth ([6]; α-TOS 10 μmoles i.p. every 3 d, 3-BP 0.2 μmoles daily intratumorally): statistically more effective (p<0.05 by analysis of covariance) than 3-BP
